Among the data in US11951094B2, “TLR2 modulator compounds, pharmaceutical compositions and uses thereof” (Axial Therapeutics, Inc., priority 2020, dated 2024) are EC50 values, retold here.

As a reminder, the EC50 is the midpoint of the concentration-response curve. Higher therefore signals lower potency in that assay.

Structures are written as SMILES. Structures can show the parent of a compound that is named as a salt.

Chain of TLR2 (O60603 21-784): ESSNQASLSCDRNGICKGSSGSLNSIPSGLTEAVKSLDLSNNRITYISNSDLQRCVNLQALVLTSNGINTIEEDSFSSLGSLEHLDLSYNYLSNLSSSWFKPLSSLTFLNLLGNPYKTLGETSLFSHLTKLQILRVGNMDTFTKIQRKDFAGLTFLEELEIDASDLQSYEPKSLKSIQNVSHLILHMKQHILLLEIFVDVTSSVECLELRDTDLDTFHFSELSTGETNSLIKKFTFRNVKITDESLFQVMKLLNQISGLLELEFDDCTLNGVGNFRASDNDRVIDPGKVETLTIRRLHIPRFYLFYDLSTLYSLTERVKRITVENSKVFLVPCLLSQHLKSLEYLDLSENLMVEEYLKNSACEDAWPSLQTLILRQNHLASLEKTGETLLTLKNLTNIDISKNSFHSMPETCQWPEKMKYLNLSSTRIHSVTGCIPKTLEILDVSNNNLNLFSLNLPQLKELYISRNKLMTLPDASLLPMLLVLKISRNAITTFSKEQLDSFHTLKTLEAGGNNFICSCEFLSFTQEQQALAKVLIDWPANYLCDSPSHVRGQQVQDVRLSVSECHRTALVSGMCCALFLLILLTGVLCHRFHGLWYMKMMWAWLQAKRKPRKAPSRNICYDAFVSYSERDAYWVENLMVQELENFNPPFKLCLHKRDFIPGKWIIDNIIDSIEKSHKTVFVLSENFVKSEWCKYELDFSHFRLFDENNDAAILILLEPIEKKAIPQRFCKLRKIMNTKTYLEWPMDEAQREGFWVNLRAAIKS

The first assay addresses TLR2 (Homo sapiens, UniProt O60603). Description: TLR2 agonist screening assay, HEK-Blue TLR2 reporter cell line (NF-kB-driven SEAP, absorbance at 600 nm). The format is cell-based. Particulars: HEK-Blue TLR2 reporter cells, agonist mode; average of all runs (Table 3). More on the design: host or cells: HEK-293 (HEK-Blue TLR2 reporter cell line). The procedure, abridged: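 Read-out: SEAP colour change, A600, after overnight agonist exposure. Cells: HEK-293 overexpressing TLR2, NF-kB-SEAP reporter, ~40,000/well, plated 16-24 h prior.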
`CCCCCCCC(=O)N1CC(=O)N(Cc2ccc(C(=O)N3C[C@@H](C(=O)N[C@H]4C[C@@H]4c4ccccc4)[C@H](C(=O)N[C@H]4C[C@@H]4c4ccccc4)C3)cc2)C[C@@H]1C(=O)NCCCCCC` [Compound 074, (3S,4S)-1-(4-(((R)-5-(hexylcarbamoyl)-4-octanoyl-2-oxopiperazin-1-yl)methyl)benzoyl)-N3,N4-bis((1S,2R)-2-phenylcyclopropyl)pyrrolidine-3,4-dicarboxamide] came in with an EC50 of 51 to 350 nM.

`CCCCCCCCCCCCCCNC(=O)[C@@H]1CN(C(=O)c2ccc(C(=O)N3C[C@@H](C(=O)N[C@H]4C[C@@H]4c4ccccc4)[C@H](C(=O)N[C@H]4C[C@@H]4c4ccccc4)C3)cc2)C[C@@H]1OC` (single isomer, unassigned) [Compound 061, (3S,4S)-1-(4-((3R*,4R*)-3-methoxy-4-(tetradecylcarbamoyl)pyrrolidine-1-carbonyl)benzoyl)-N3,N4-bis((1S,2R)-2-phenylcyclopropyl)pyrrolidine-3,4-dicarboxamide] gave an EC50 of 0.1 to 50 nM.

Turning to `CCCCCCNC(=O)[C@@H]1C[C@@H](C(=O)NCCCCCC)CN(C(=O)c2ccc(C(=O)N3C[C@@H](C(=O)N[C@H]4C[C@@H]4c4ccccc4)[C@H](C(=O)N[C@H]4C[C@@H]4c4ccccc4)C3)cc2)C1` [Compound 043], the EC50 was greater than 1000 nM.

`CCCCCCCCCCCCCCNC(=O)C1CN(C(=O)c2ccc(C(=O)N3C[C@@H](C(=O)N[C@H]4C[C@@H]4c4ccccc4)[C@H](C(=O)N[C@H]4C[C@@H]4c4ccccc4)C3)cc2)CCN1C` (stereo partly drawn) [Compound 023, (3S,4S)-1-(4-(4-methyl-3-(tetradecylcarbamoyl)piperazine-1-carbonyl)benzoyl)-N3,N4-bis((1S,2R)-2-phenylcyclopropyl)pyrrolidine-3,4-dicarboxamide formate] had a concentration for a half-maximal effect (EC50) of 0.1 to 50 nM.

In turn, `CCCCCCNC(=O)CC[C@H](NC(=O)c1ccc(C(=O)N2C[C@@H](C(=O)N[C@H]3C[C@@H]3c3ccccc3)[C@H](C(=O)N[C@H]3C[C@@H]3c3ccccc3)C2)cc1)C(=O)NCCCCCC` [Compound 013] returned an EC50 greater than 1000 nM.

The compound `CCCCCCNC(=O)C1CN(C(=O)c2ccc(C(=O)N3C[C@@H](C(=O)N[C@H]4C[C@@H]4c4ccccc4)[C@H](C(=O)N[C@H]4C[C@@H]4c4ccccc4)C3)cc2)CCN1C(=O)CCCCCC` (mixture of isomers) [Compound 056, (3S,4S)-1-(4-(4-heptanoyl-3-(hexylcarbamoyl)piperazine-1-carbonyl)benzoyl)-N3,N4-bis((1S,2R)-2-phenylcyclopropyl)pyrrolidine-3,4-dicarboxamide] yielded an EC50 of 0.1 to 50 nM.

The compound `O=C(N[C@H]1C[C@@H]1c1ccccc1)[C@@H]1CN(C(=O)c2cnc(C(=O)N3C[C@@H](C(=O)N[C@H]4C[C@@H]4c4ccccc4)[C@H](C(=O)N[C@H]4C[C@@H]4c4ccccc4)C3)cn2)C[C@H]1C(=O)N[C@H]1C[C@@H]1c1ccccc1` [Compound 067] had an EC50 greater than 1000 nM.

The assay is the same for the next values; noted with them: HEK-Blue TLR2 reporter cells, agonist mode; average of all runs (Table 4).
Turning to `CCCCCCCC(=O)N[C@@H](CNC(=O)c1ccc(C(=O)N2C[C@@H](C(=O)N[C@H]3C[C@@H]3c3ccccc3)[C@H](C(=O)N[C@H]3C[C@@H]3c3ccccc3)C2)cc1)C(=O)NCCCCCC` [Compound 173, (3S,4S)-1-(4-(((S)-3-(hexylamino)-2-octanamido-3-oxopropyl)carbamoyl)benzoyl)-N3,N4-bis((1S,2R)-2-phenylcyclopropyl)pyrrolidine-3,4-dicarboxamide], the EC50 was 0.1 to 50 nM.

Take `CCCCCCCCCNC(=O)[C@H](CNC(=O)c1ccc(C(=O)N2C[C@@H](C(=O)N[C@H]3C[C@@H]3c3ccccc3)[C@H](C(=O)N[C@H]3C[C@@H]3c3ccccc3)C2)cc1)NC(=O)CCCCCCCCC` [Compound 207, (3S,4S)-1-(4-(((S)-2-decanamido-3-(nonylamino)-3-oxopropyl)carbamoyl)benzoyl)-N3,N4-bis((1S,2R)-2-phenylcyclopropyl)pyrrolidine-3,4-dicarboxamide]: the EC50 lay within 0.1 to 50 nM.

`CCCCCCN1C(=O)[C@H](CCCCC)NC(=O)[C@@H]1CNC(=O)c1ccc(C(=O)N2C[C@@H](C(=O)N[C@H]3C[C@@H]3c3ccccc3)[C@H](C(=O)N[C@H]3C[C@@H]3c3ccccc3)C2)cc1` [Compound 159] gave an EC50 of 351 to 1000 nM.

`CCCCCCCCCCCCCCNC(=O)[C@@H]1CN(C(=O)c2ccc(C(=O)N3C[C@@H](C(=O)N[C@H]4C[C@@H]4c4ccccc4)[C@H](C(=O)N[C@H]4C[C@@H]4c4ccccc4)C3)cc2)CCN1C(=O)C(C)(C)C` [Compound 251, (3S,4S)—N3,N4-bis((1S,2R)-2-phenylcyclopropyl)-1-(4-((S)-4-pivaloyl-3-(tetradecylcarbamoyl)piperazine-1-carbonyl)benzoyl)pyrrolidine-3,4-dicarboxamide] came in with an EC50 greater than 1000 nM.

`CCCCCCNC(=O)[C@H]1CN(C(c2ccc(C(=O)N3C[C@@H](C(=O)N[C@H]4C[C@@H]4c4ccccc4)[C@H](C(=O)N[C@H]4C[C@@H]4c4ccccc4)C3)cc2)C(F)(F)F)CCN1C(=O)CCCCCC` (stereo partly drawn) [Compound 158, (3S,4S)—N3,N4-bis((1S,2R)-2-phenylcyclopropyl)-1-(4-(2,2,2-trifluoro-1-((R)-4-heptanoyl-3-(hexylcarbamoyl)piperazin-1-yl)ethyl)benzoyl)pyrrolidine-3,4-dicarboxamide] had an EC50 greater than 1000 nM.

Compound `CCCCCCCN[C@H]1CN(C(=O)c2ccc(C(=O)N3C[C@@H](C(=O)N[C@H]4C[C@@H]4c4ccccc4)[C@H](C(=O)N[C@H]4C[C@@H]4c4ccccc4)C3)cc2)C[C@@H]1OCCCCCCC` [Compound 089, (3S,4S)-1-(4-((3S,4S)-3-(heptylamino)-4-(heptyloxy)pyrrolidine-1-carbonyl)benzoyl)-N3,N4-bis((1S,2R)-2-phenylcyclopropyl)pyrrolidine-3,4-dicarboxamide] displayed an EC50 greater than 1000 nM.

Turning to `CCCCCCCCCC(=O)NC(Cn1cnc2ccc(C(=O)N3C[C@@H](C(=O)N[C@H]4C[C@@H]4c4ccccc4)[C@H](C(=O)N[C@H]4C[C@@H]4c4ccccc4)C3)cc2c1=O)C(=O)NCCCCCC` (stereo partly drawn) [Compound 248, (3S,4S)-1-(3-(2-decanamido-3-(hexylamino)-3-oxopropyl)-4-oxo-3,4-dihydroquinazoline-6-carbonyl)-N3,N4-bis((1S,2R)-2-phenylcyclopropyl)pyrrolidine-3,4-dicarboxamide], the EC50 was greater than 1000 nM.

With `CCCCCCCCCC(=O)N[C@@H](COCc1ccc(C(=O)N2C[C@@H](C(=O)N[C@H]3C[C@@H]3c3ccccc3)[C@H](C(=O)N[C@H]3C[C@@H]3c3ccccc3)C2)cc1)C(=O)NCCCCCC` [Compound 263, (3S,4S)-1-(4-(((S)-2-decanamido-3-(hexylamino)-3-oxopropoxy)methyl)benzoyl)-N3,N4-bis((1S,2R)-2-phenylcyclopropyl) pyrrolidine-3,4-dicarboxamide], the EC50 was 351 to 1000 nM.

`CCCCCCC(=O)N[C@@H](CNC(=O)c1ccc(C(=O)N2C[C@@H](C(=O)N[C@H]3C[C@@H]3c3ccccc3)[C@H](C(=O)N[C@H]3C[C@@H]3c3ccccc3)C2)cc1)C(=O)NCCc1ccc(F)cc1` [Compound 129, (3S,4S)-1-(4-(((S)-3-((4-fluorophenethyl)amino)-2-heptanamido-3-oxopropyl)carbamoyl)benzoyl)-N3,N4-bis((1S,2R)-2-phenylcyclopropyl)pyrrolidine-3,4-dicarboxamide]: the EC50 is 51 to 350 nM.

`CCCCCCCC(=O)N1CCN(Cc2ccc(C(=O)N3C[C@@H](C(=O)N[C@H]4C[C@@H]4c4ccccc4)[C@H](C(=O)N[C@H]4C[C@@H]4c4ccccc4)C3)cc2)C[C@H]1C(=O)NCCCCCC` [Compound 122, (3S,4S)-1-(4-(((S)-3-(hexylcarbamoyl)-4-octanoylpiperazin-1-yl)methyl)benzoyl)-N3,N4-bis((1S,2R)-2-phenylcyclopropyl) pyrrolidine-3,4-dicarboxamide] displayed a concentration giving a half-maximal response (EC50) greater than 1000 nM.

For `CCCCCCCCCCCCCCC(=O)N[C@H]1CN(C(=O)c2ccc(C(=O)N3C[C@@H](C(=O)N[C@H]4C[C@@H]4c4ccccc4)[C@H](C(=O)N[C@H]4C[C@@H]4c4ccccc4)C3)cc2)C[C@@H]1O` [Compound 078, (3S,4S)-1-(4-((3S,4S)-3-hydroxy-4-pentadecanamidopyrrolidine-1-carbonyl)benzoyl)-N3,N4-bis((1S,2R)-2-phenylcyclopropyl)pyrrolidine-3,4-dicarboxamide], the EC50 was 51 to 350 nM.

In the case of `CCCCCCCCCCCCCCC(=O)N[C@H]1CCN(Cc2ccc(C(=O)N3C[C@@H](C(=O)N[C@H]4C[C@@H]4c4ccccc4)[C@H](C(=O)N[C@H]4C[C@@H]4c4ccccc4)C3)cc2)C1=O` [Compound 133, (3S,4S)-1-(4-(((S)-2-oxo-3-pentadecanamidopyrrolidin-1-yl)methyl)benzoyl)-N3,N4-bis((1S,2R)-2-phenylcyclopropyl)pyrrolidine-3,4-dicarboxamide], the EC50 is greater than 1000 nM.

As to `CCCCCCNC(=O)[C@H](CNC(=O)c1ccc(C(=O)N2C[C@@H](C(=O)N[C@H]3C[C@@H]3c3ccccc3)[C@H](C(=O)N[C@H]3C[C@@H]3c3ccccc3)C2)cc1)NC(=O)NCCCCC` [Compound 137, (3S,4S)-1-(4-(((S)-3-(hexylamino)-3-oxo-2-(3-pentylureido)propyl)carbamoyl)benzoyl)-N3,N4-bis((1S,2R)-2-phenylcyclopropyl)pyrrolidine-3,4-dicarboxamide], the EC50 is 51 to 350 nM.

Consider `CCCCCCCC[C@H]1CN(C(=O)c2ccc(C(=O)N3C[C@@H](C(=O)N[C@H]4C[C@@H]4c4ccccc4)[C@H](C(=O)N[C@H]4C[C@@H]4c4ccccc4)C3)cc2)C[C@H]1C(=O)NCCCCCC` (relative stereo) [Compound 086, (3S,4S)-1-(4-((3S*,4R*)-3-(hexylcarbamoyl)-4-octylpyrrolidine-1-carbonyl)benzoyl)-N3,N4-bis((1S,2R)-2-phenylcyclopropyl)pyrrolidine-3,4-dicarboxamide], for which the EC50 is greater than 1000 nM.

As to `CCCCCCCC[C@@H]1CN(C(=O)c2ccc(C(=O)N3C[C@@H](C(=O)N[C@H]4C[C@@H]4c4ccccc4)[C@H](C(=O)N[C@H]4C[C@@H]4c4ccccc4)C3)cc2)C[C@H]1C(=O)NCCCCCC` (single isomer, unassigned) [Compound 111], the EC50 lay within 0.1 to 50 nM.
